Results published in publication PMC9928118, “Funneling modulatory peptide design with generative models: Discovery and characterization of disruptors of calcineurin protein-protein interactions” (PLOS Computational Biology, 2023).

B1: rbmRIPOR2 (peptide)
peptide: Ac-ASVSNPEITVTSAETE-NH2
notes: cRBM-designed; source: synthetic peptide (peptide2 Inc)
B2: rbmRIPOR2_2 (peptide)
peptide: Ac-HVSSSPRITITPTQHR-NH2
notes: cRBM-designed (low temperature sampling); source: synthetic peptide (peptide2 Inc)
B3: rbmCAPN11 (peptide)
peptide: Ac-TYWTNPQFRVTLEDPD-NH2
notes: cRBM-designed (low temperature sampling); (Schistosoma mansoni CAPN11), 2 mutations; source: synthetic peptide (peptide2 Inc)
B4: rbmTRESK (peptide)
peptide: Ac-ADEAIPEIVISKPEEP-NH2
notes: as for B2
B5: TRESK peptide (peptide)
peptide: Ac-ADEAVPQIIISAEELP-NH2
notes: source: synthetic peptide (peptide2 Inc)
B6: rbmAKAP79 (peptide)
peptide: Ac-AAGAGVGIVITVTEAE-NH2
notes: as for B2
B7: rbmAKAP79_2 (peptide)
peptide: Ac-ADGAGVGIVITVTEAE-NH2
notes: as for B2
B8: rbmTRESK_2 (peptide)
peptide: Ac-ADEAIPEITITSAELP-NH2
notes: as for B2

Experiments:
[1] = biological target: T1, Calcineurin (Cn) catalytic domain (Cn A), PxIxIT binding site (Homo sapiens, UniProt Q08209, L343A/M347D/Y341S); assay: Fluorescence polarization (FP) competition assay against FITC-labeled PVIVIT peptide; details: for IC50: read-out: IC50 (competition with FITC-labeled PVIVIT peptide for Cn binding), 100nM FITC-labeled PVIVIT peptide, 4uM Cn A, variable peptide concentrations, 96-well plate, triplicate, single site inhibition model fit, NB = No binding; for Ability to compete with PVIVIT for Cn binding: 100nM FITC-labeled PVIVIT peptide, 4uM Cn A, result in words
T1 construct: the gene encoding to residues 2–347 with substitutions Y341S, L343A, and M347D was expressed as a cleavable GST fusion protein; GST; made in house; host or cells: E. coli BL21
T1 sequence (Q08209 2-347 Y341S/L343A/M347D): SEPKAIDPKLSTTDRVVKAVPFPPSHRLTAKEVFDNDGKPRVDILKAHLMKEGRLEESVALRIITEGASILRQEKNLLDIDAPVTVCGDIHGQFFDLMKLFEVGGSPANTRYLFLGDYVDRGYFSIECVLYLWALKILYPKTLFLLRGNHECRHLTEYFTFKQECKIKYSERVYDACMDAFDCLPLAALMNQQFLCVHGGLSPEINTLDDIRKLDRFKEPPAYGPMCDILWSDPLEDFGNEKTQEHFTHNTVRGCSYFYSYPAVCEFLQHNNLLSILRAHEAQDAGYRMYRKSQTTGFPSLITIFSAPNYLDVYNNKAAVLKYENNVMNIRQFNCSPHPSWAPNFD
Procedure: Polarization levels were read and normalized values were fitted to a single site model.
Selected peptides were synthesized and their ability to specifically bind the Cn PxIxIT binding site was evaluated by FP competition assay (Methods).
The catalytic domain of Cn was expressed as described in [84, 85]. […] Growing in LB, after reaching to OD(600nm) = 0.8, protein expression was induced by the addition of 1 mM IPTG at 25°C. The cells were harvested after 16h and resuspended in PBS-based lysis buffer suitable for downstream purification onto GST column (Glutathione Sepharose 4 Fast Flow) of the soluble fraction after disrupted by sonication and remove of all non-soluble debris by centrifuge. Elution from the GST column was further purified by size exclusion chromatography with the superdex75 column.
Fluorescence measurements were performed on samples arrayed in a 96-well plate using Biotek HybridH1 reader equipped with a polarized optic system. All measurements were done in triplicate.

GST-tagged Cn [2] = assay: PEPperPRINT peptide microarray binding assay with GST-tagged Cn; details: GST-tagged Cn, mean over the duplicate spots (Location on chip)
In short: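 Qualitative binding: peptides printed on a PEPperPRINT microarray were incubated overnight at 4 °C with 1 mg/ml GST-tagged Cn, then detected with Alexa-Fluor 647 anti-GST antibody. Log fluorescence was baseline-corrected, averaged over duplicate spots, Z-normalized and averaged across five repeats.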

GST-tagged Cn [3] = assay: as above; details: max over the duplicate spots (Location on chip)
[4] = biological target: T2, catalytic domain of Calcineurin (Cn A), residues 2-347 with Y341S, L343A, M347D (UniProt Q08209 2-347, Y341S | L343A | M347D); assay: fluorescence polarisation; competition: variable concentrations of non-labeled peptide added to 100 nM FITC-labeled PVIVIT peptide and 4 uM Cn A, 96-well plate, triplicate; fitted to a single site inhibition model; details: both partners purified
T2 construct: Calcineurin catalytic domain (calcineurin A), residues 2-347, with substitutions Y341S, L343A, M347D; Expressed as a cleavable GST fusion; source: E. coli BL21, purified (Glutathione Sepharose 4 Fast Flow, size exclusion on Superdex 75)
T2 sequence (Q08209 2-347 Y341S/L343A/M347D): as above

Molecule | Chip Fluorescence (mean) (GST-tagged Cn [2]) | Chip Fluorescence (max) (GST-tagged Cn [3]) | IC50 [4] [µM] | also measured
Ac-TFHTNPQYRIKLEEPD-NH2 [rbmCAPN11_2] |  |  |  | IC50 [1]: > 257 µM
Ac-TTAMNPQFFVQIPRTA-NH2 [CAPN11] |  |  |  | IC50 [1]: > 257 µM
Ac-AAGAGVGIVITVTEAE-NH2 [rbmAKAP79] |  |  |  | Ability to compete with PVIVIT for Cn binding [1]: successfully competed with PVIVIT binding
Ac-RTYINPFMLFEDMGSR-NH2 [rbmSFB3] |  |  |  | IC50 [1]: > 257 µM
Ac-ADGAGVGIVITVTEAE-NH2 [rbmAKAP79_2] |  |  |  | Ability to compete with PVIVIT for Cn binding [1]: successfully competed with PVIVIT binding
Ac-TFWTNPQYRIKLEEAD-NH2 [rbmCAPN11_3] |  |  |  | IC50 [1]: > 257 µM
TFNNNPQATVRRTDID [SeqRBM_1961] | 0.6511 | 1.877 |  | 
KELANLRVTPPDNGTL [SeqRBM_2710] | 0.2344 | 2.355 |  | 
PSIYQEVLGIGNFSLS [SeqRBMlowT_4899] | 0.7614 | 2.16 |  | 
ASEANPEITVTPAELP [SeqRBMlowT_1250] | -0.04845 | 2.513 |  | 
FTMKFAWALPQCYVHC [Seqrandom_9941] | 0.4694 | 2.049 |  | 
GNDDCPEVVVHPPEED [SeqRBMlowT_7697] | 0.9366 | 2.095 |  | 
RAYMNPSVCFTDGGAR [SeqRBM_6787] | 0.3113 | 1.921 |  | 
KAYMCPFMQFIDGGRR [SeqRBMlowT_502] | -0.1535 | 2.385 |  | 
B1 |  |  | 79 | 
B2 |  |  | 200 | 
B3 |  |  | 257 | 
B4 |  |  | 14 | 
B5 |  |  | 54 | 
B6 |  |  | 57 | 
B7 |  |  | 69 | 
B8 |  |  | 60 | 
